Active and inactive are the calls of the source. The calls are words filed in the database; no cut-off is given here.
Experiments:
[1] = Inhibition of NF-kappaB-mediated gene transcription expressed in TNF-alpha-stimulated human HeLa cells for 30 mins before TNFalpha challenge measured after 8 hrs by steady-glo luciferase reporter gene assay; format: cell-based
[2] = test system: Blood; test: Antiinflammatory activity in human whole blood assessed as inhibition of IL-1-beta-stimulated IL6 production preincubated 2 hrs before IL1-beta challenge measured after 18 hrs by ELISA; format: functional, tissue-based
[3] = test system: HeLa; test: Stimulation of NF-kappaB-mediated gene transcription expressed in human HeLa cells for 30 mins before TNFalpha challenge measured after 8 hrs by steady-glo luciferase reporter gene assay; format: cell-based
[4] = Cytotoxicity against human 184B5 cells after 24 hrs by MTS assay; format: cell-based

SMILES	EC50 [1] [µM]	Activity [2]	IC50 ([2]; read-out: IC50) [µM]	IC50 ([2]; read-out: Log IC50 (converted)) [µM]	Activity [3]	CC50 at 24 h [4] [µM]
CCOC(=O)[C@]1(c2ccccc2)N=C(c2ccccc2)N(Cc2ccc(C)cc2)[C@@H]1c1ccccc1 (racemic)	1.7	Dose-dependent effect	4.6	4.57	inactive	> 10
CCOC(=O)[C@]1(c2ccccc2)N=C(c2ccccc2)N(Cc2ccccc2)[C@@H]1c1ccc(Cl)cc1 (racemic)	1.5	Dose-dependent effect	0.3	0.0617	inactive	> 10
CCOC(=O)[C@]1(c2ccccc2)N=C(c2ccccc2)N(Cc2ccc(Br)cc2)[C@@H]1c1ccccc1 (racemic)	2.7	Dose-dependent effect	0.5	2	inactive	> 10
CCOC(=O)[C@]1(c2ccccc2)N=C(c2ccccc2)N(Cc2ccccc2)[C@@H]1c1ccc(F)cc1 (racemic)	5	Dose-dependent effect	1	1.05	inactive	> 10
CCOC(=O)[C@]1(c2ccccc2)N=C(c2ccccc2)N(Cc2ccc(F)cc2)[C@@H]1c1ccccc1 (racemic)	5.2	Dose-dependent effect	1.2	1.2	inactive	> 10
COC(=O)[C@]1(Cc2ccccc2)N=C(c2ccccc2)N(Cc2ccccc2)[C@@H]1c1ccccc1 (racemic)	5.3	Dose-dependent effect	4.1	4.07	inactive	> 10
CCOC(=O)[C@]1(c2ccccc2)N=C(c2ccccc2)N[C@@H]1c1ccccc1 (racemic)	116	Dose-dependent effect	> 20	34.7	inactive	> 10
CCOC(=O)[C@]1(c2ccccc2)N=C(c2ccccc2)N(C(C)=O)[C@@H]1c1ccccc1 (racemic)	168	Dose-dependent effect	> 20	–	inactive	> 10
COC(=O)[C@]1(Cc2cc3ccccc3[nH]2)N=C(c2ccccc2)N(Cc2ccccc2)[C@@H]1c1ccccc1 (racemic)	13	Dose-dependent effect	16.1	16.2	inactive	> 10
CCCOC(=O)[C@]1(c2ccccc2)N=C(c2ccccc2)N(Cc2ccccc2)[C@@H]1c1ccccc1 (racemic)	2.3	Dose-dependent effect	1.9	1.95	inactive	> 10
COC(=O)[C@]1(C)N=C(c2ccccc2)N(Cc2ccccc2)[C@@H]1c1ccccc1 (racemic)	> 20	Dose-dependent effect	3	2.95	inactive	> 10
CC(C)OC(=O)[C@]1(c2ccccc2)N=C(c2ccccc2)N(Cc2ccccc2)[C@@H]1c1ccccc1 (racemic)	3.5	Dose-dependent effect	1.9	1.95	inactive	> 10
O=C(OCc1ccccc1)[C@]1(c2ccccc2)N=C(c2ccccc2)N(Cc2ccccc2)[C@@H]1c1ccccc1 (racemic)	3.5	Dose-dependent effect	5.9	5.89	inactive	> 10
NC(=O)[C@]1(c2ccccc2)N=C(c2ccccc2)N(Cc2ccccc2)[C@@H]1c1ccccc1 (racemic)	> 20	Dose-dependent effect	> 20	46.8	inactive	> 10
COC(=O)[C@]1(c2ccccc2)N=C(c2ccccc2)N(Cc2ccccc2)[C@@H]1c1ccccc1 (racemic)	7.5	Dose-dependent effect	3	3.02	inactive	> 10
CCOC(=O)[C@]1(c2ccccc2)N=C(c2ccccc2)N(Cc2ccc(Cl)cc2)[C@@H]1c1ccccc1 (racemic)	4.2	Dose-dependent effect	1.6	1.58	inactive	> 10
CCOC(=O)[C@]1(c2ccccc2)N=C(c2ccccc2)N(Cc2ccccc2)[C@@H]1c1ccncc1 (racemic)	> 20	Dose-dependent effect	9.4	9.33	inactive	> 10
CCOC(=O)[C@]1(c2ccccc2)N=C(c2ccccc2)N(Cc2ccccc2)[C@@H]1c1ccc(OC)cc1 (racemic)	3.6	Dose-dependent effect	1.3	1.29	inactive	> 10
CCOC(=O)[C@]1(c2ccccc2)N=C(c2ccccc2)N(Cc2ccco2)[C@@H]1c1ccccc1 (racemic)	5.5	Dose-dependent effect	1.3	1.29	inactive	> 10
COC(=O)[C@]1(C(C)C)N=C(c2ccccc2)N(Cc2ccccc2)[C@@H]1c1ccccc1 (racemic)	20	Dose-dependent effect	7.1	7.08	inactive	> 10
CCOC(=O)[C@]1(c2ccccc2)N=C(c2ccccc2)N(C(=O)c2ccccc2)[C@@H]1c1ccccc1 (racemic)	24.9	Dose-dependent effect	6.6	6.61	inactive	> 10
CCOC(=O)[C@]1(c2ccccc2)N=C(c2ccccc2)N(Cc2ccccc2)[C@@H]1c1ccc(N)cc1 (racemic)	10.4	Dose-dependent effect	0.5	0.457	inactive	> 10
CCOC(=O)[C@]1(c2ccccc2)N=C(c2ccccc2)N(Cc2ccc(OC)cc2)[C@@H]1c1ccccc1 (racemic)	5	Dose-dependent effect	1.4	1.38	inactive	> 10
CCOC(=O)[C@]1(c2ccccc2)N=C(c2ccccc2)N(S(=O)(=O)c2ccc(C)cc2)[C@@H]1c1ccccc1 (racemic)	36.1	Dose-dependent effect	6.6	6.61	inactive	> 10
CCOC(=O)[C@]1(c2ccccc2)N=C(c2ccccc2)N(Cc2ccccc2)[C@@H]1c1ccco1 (racemic)	7.6	Dose-dependent effect	1.9	1.91	inactive	> 10
CCOC(=O)[C@]1(c2ccccc2)N=C(c2ccccc2)N(Cc2ccc(C(F)(F)F)cc2)[C@@H]1c1ccccc1 (racemic)	6.7	Dose-dependent effect	1.5	1.48	inactive	> 10
CCOC(=O)[C@]1(c2ccccc2)N=C(c2ccccc2)N(Cc2ccccc2)[C@@H]1c1ccc(C(F)(F)F)cc1 (racemic)	1.4	Dose-dependent effect	0.8	0.851	inactive	> 10
CCOC(=O)[C@]1(c2ccccc2)N=C(c2ccccc2)N(Cc2ccccc2)[C@@H]1c1ccc([N+](=O)[O-])cc1 (racemic)	3.4	Dose-dependent effect	0.5	0.537	inactive	> 10
